Entries after “also recorded” stand apart in the source; their conditions may differ. Structures can show the parent of a compound that is named as a salt. Residues, ends and D or L forms follow the SMILES beside them.
Key:
[1] = test system: murine myometrial tissue (PGF2α-induced contractions; FP); assay: ex vivo mouse myometrial tissue contraction assay (PGF2α-induced); set-up: species or system mouse (CD-1); conditions: post-partum CD-1 mouse myometrial strips, Krebs buffer pH 7.4, 37 °C, 20 min pretreatment with peptide at two concentrations, then PGF2α; 4–6 experiments per group, means ± SEM, t-test, p < 0.05 vs vehicle
Experimental: All the peptides were initially tested in an ex vivo mouse myometrial tissue contraction assay. Contractile activity was measured on tissue that was harvested post-partum and treated with prostaglandin F2α (PGFα) alone (control) or in the presence of peptides L-4b-4g, L-7, and L-8. […] Mean tension induced by KCl (as a positive control) was not affected by L-4d.
Pregnant CD-1 mice (16-17 days gestation, term 19 days) were obtained from Charles River Inc. and used according to a protocol of the Animal Care Committee of Hôpital Sainte-Justine according to the principles of the Guide for the Care and Use of Experimental Animals of the Canadian Council on Animal Care. The animals were maintained on standard laboratory chow under a 12:12 light:dark cycle and allowed free access to chow and water.
The uterus from the CD-1 mouse was obtained from the animal immediately after term delivery under anesthesia (2.5% isoflurane). Briefly, a midline abdominal incision was made and the uterine horns were rapidly excised, cleansed carefully of the surrounding connective tissues, and removed. Longitudinal myometrial strips (2 to 3 mm wide and 1 cm long) were dissected free from the uterus and mounted isometrically in organ tissue baths. The initial tension was set at 2 g. The tissue baths contained 20 mL of Krebs buffer of the following composition (in mM): 118 NaCl, 4.7 KCl, 2.5 CaCl2, 0.9 MgSO4, 1 KH2PO4, 11.1 glucose, and 23 NaHCO3 (pH 7.4). The buffer was equilibrated with 95% oxygen/5% carbon dioxide at 37 °C. Isometric tension was measured by a force transducer and recorded by a BIOPAC data acquisition system (BIOPAC MP150, Montreal, PQ, Canada). Experiments were begun after 1 h equilibration. Mean tension of spontaneous contractions was measured using a BIOPAC digital polygraph system (AcqKnowledge); the same parameters were also determined after addition of PGF2α in the presence or the absence of a 20 min-pretreatment with different FP inhibitors. At the start of each experiment, mean tension of spontaneous myometrial contractions was considered as a reference response. Changes in mean tension (g) were expressed as percentages of the initial reference response (% of baseline).
At the start of each experiments, mean tension of spontaneous myometrial contractions was considered as a reference response. Increase in mean tension (%) was expressed as percentages of (X/Y)-100, where X is the change in mean tension (g) induced by PGF2α and Y is the initial reference response (g). Data are representative of 4–6 experiments per treated group. All results are expressed as means ± SEM and were compared by Independent t-tests. Statistical tests were performed with GraphPad Prism 4.3 software and p < 0.05 was considered statistically significant.

[2] = solubility in water (observation on handling); type: physicochemical; conditions: qualitative observation on the purified, freeze-dried peptide
Experimental: Linear sequences of L- and D-PDC31 linked to 2-chlorotrityl resin (L- and D-1) were obtained by solid phase peptide synthesis using standard Fmoc/t-Bu protocols. Peptide resin L-1 was treated with the appropriate aldehyde 2 (Scheme 1). The imine resin was washed to remove excess aldehyde, and reductive amination was performed using sodium cyanoborohydride to provide secondary amine resin 3. Removal of the protecting groups and resin cleavage were achieved using a cocktail of 95:2.5:2.5 TFA:TES:H2O to provide N-alkyl- and N-PEG-grafted peptides 4, which were purified by RP-HPLC (Table 1). […] An inseparable mixture of mono- and bis-N-alkyl peptides was isolated by HPLC from reaction with aldehyde of shorter chain length.
Increased lipophilic character may promote peptide aggregation and decrease solubility in aqueous solvent. […] For biological assays, solubility issues were surmounted by forming salts and using small amounts of DMSO. The influence of their amphiphilic character during purification by RP-HPLC and double alkylation from the reductive amination sequence may account for the lower isolated yields of peptides 4, 7 and 8.

[3] = serum stability study (mouse serum/plasma, MS/MS); type: in vitro ADME; conditions: mouse plasma (method: serum), 37 °C, LC-MS/MS, internal standard L-4f
Experimental: Peptide L-4d was further examined for stability in serum and compared to L-PDC31. The two peptides were incubated at 37 °C in mouse plasma. Aliquots were removed at different time intervals and analyzed by mass spectrometry (MS/MS) to detect remaining amount of peptide (Figure 3).
Serum was […] and kept on ice throughout the procedure. Two blanks were prepared by adding 5 µL of DMSO to 95 µL of serum. These were incubated for 2 h and submitted to the same treatment as the other samples. Two series of vials containing 95 µL of serum were prepared and spiked with either 5 µL of L-PDC31 [0.4 mM] or L-4d [0.4 mM], and incubated for 120, 60, 30, 15, 10 and 5 min, respectively, after which 100 µL of 4% phosphoric acid was added. Two vials were also spiked with 5 µL L-PDC31 and L-4d, respectively, and immediately treated with phosphoric acid (time = 0 min). The vials were incubated for 5 min at 95 °C, cooled on ice for 2 min, treated with 600 µL of cold MeCN containing L-4f (0.02 mM) as internal standard, and incubated at –20 °C overnight. After the incubation period, the vials were vortexed for 2 min and centrifuged at 4 °C for 15 min. The supernatant was transferred into LC-MS vials and analyzed.
Results were expressed as: (AN/IS/AN0/IS0)∗100
AN and IS refer, respectively, to the analyte and internal standard MS signals. Both values are compared with initial injection at which time AN0 and IS0 were not incubated.

[4] = test system: prostaglandin F2α receptor (FP); conditions: cited from earlier work
Experimental: The development of PDC31 originated from a library of sequences based on the second extracellular loop of FP. Short lead peptides were analyzed initially using in vitro and ex vivo analyses. […] Moreover, addition of the dodecyl chain enhanced plasma stability.

Compound	effect on PGF2α-induced contractions (mean tension) of myometrial tissue [1]	solubility in water [2]	also measured
CCCCCCCCCCCCN[C@@H](C(=O)N[C@H](CC(C)C)C(=O)NCC(=O)N[C@H](Cc1c[nH]cn1)C(=O)N[C@H](CCCNC(N)=O)C(=O)N[C@H](CC(=O)O)C(=O)N[C@H](Cc1ccc(O)cc1)C(=O)N[C@H](CCCCN)C(=O)O)[C@H](C)CC [D-4d, N-Dodecyl-D-Ile-D-Leu-Gly-D-His-D-Cit-D-Asp-D-Tyr- D-Lys-OH] (HELM PEPTIDE1{[CCCCCCCCCCCCN[C@@H](C(=O)[*:2])[C@H](C)CC].[dL].G.[dH].[NC(=O)NCCC[C@@H](N[*:1])C(=O)[*:2]].[dD].[dY].[dK]}$$$$V2.0)	trends suggesting protective effects; also recorded: lower potency than the unmodified D-peptide, PDC-31	–	–
CCCCCCN[C@H](C(=O)N[C@@H](CC(C)C)C(=O)NCC(=O)N[C@@H](Cc1c[nH]cn1)C(=O)N[C@@H](CCCNC(N)=O)C(=O)N[C@@H](CC(=O)O)C(=O)N[C@@H](Cc1ccc(O)cc1)C(=O)N[C@@H](CCCCN)C(=O)O)[C@@H](C)CC [L-4b, N-Hexanyl-Ile-Leu-Gly-His-Cit-Asp-Tyr-Lys-OH] (HELM PEPTIDE1{[CCCCCCN[C@H](C(=O)[*:2])[C@@H](C)CC].L.G.H.[Cit].D.Y.K}$$$$V2.0)	trends suggesting protective effects; also recorded: not statistically significant	–	–
CCCCCCCCCCCCCN[C@H](C(=O)N[C@@H](CC(C)C)C(=O)NCC(=O)N[C@@H](Cc1c[nH]cn1)C(=O)N[C@@H](CCCNC(N)=O)C(=O)N[C@@H](CC(=O)O)C(=O)N[C@@H](Cc1ccc(O)cc1)C(=O)N[C@@H](CCCCN)C(=O)O)[C@@H](C)CC [L-4e, N-Tridecanyl-Ile-Leu-Gly-His-Cit-Asp-Tyr-Lys-OH] (HELM PEPTIDE1{[CCCCCCCCCCCCCN[C@H](C(=O)[*:2])[C@@H](C)CC].L.G.H.[Cit].D.Y.K}$$$$V2.0)	–	Except for peptide 4e, bearing the 18-carbon alkyl chain, peptides 4 were all soluble in water	–
CC[C@H](C)[C@H](NCCOCCOCCOCCOC)C(=O)N[C@@H](CC(C)C)C(=O)NCC(=O)N[C@@H](Cc1c[nH]cn1)C(=O)N[C@@H](CCCNC(N)=O)C(=O)N[C@@H](CC(=O)O)C(=O)N[C@@H](Cc1ccc(O)cc1)C(=O)N[C@@H](CCCCN)C(=O)O [L-4g, N-2,7,8,11-tetraoxytetradecane-Ile-Leu-Gly-His-Cit-Asp-Tyr-Lys-OH] (HELM PEPTIDE1{[CC[C@H](C)[C@H](NCCOCCOCCOCCOC)C(=O)[*:2]].L.G.H.[Cit].D.Y.K}$$$$V2.0)	Neither PEGylated peptide L-4g nor N-farnesyl peptide L-7 exhibited activity	–	–
CC[C@H](C)[C@H](NCC=C(C)CCC=C(C)CCC=C(C)C)C(=O)N[C@@H](CC(C)C)C(=O)NCC(=O)N[C@@H](Cc1c[nH]cn1)C(=O)N[C@@H](CCCNC(N)=O)C(=O)N[C@@H](CC(=O)O)C(=O)N[C@@H](Cc1ccc(O)cc1)C(=O)N[C@@H](CCCCN)C(=O)O [L-7, N-Farnesyl-Ile-Leu-Gly-His-Cit-Asp-Tyr-Lys-OH] (HELM PEPTIDE1{[CC[C@H](C)[C@H](NCC=C(C)CCC=C(C)CCC=C(C)C)C(=O)[*:2]].L.G.H.[Cit].D.Y.K}$$$$V2.0)	Neither PEGylated peptide L-4g nor N-farnesyl peptide L-7 exhibited activity	soluble in water	–
CCCCCCCCCCCC(=O)N[C@H](C(=O)N[C@@H](CC(C)C)C(=O)NCC(=O)N[C@@H](Cc1c[nH]cn1)C(=O)N[C@@H](CCCNC(N)=O)C(=O)N[C@@H](CC(=O)O)C(=O)N[C@@H](Cc1ccc(O)cc1)C(=O)N[C@@H](CCCCN)C(=O)O)[C@@H](C)CC [L-8 HCl salt] (HELM PEPTIDE1{[CCCCCCCCCCCC(=O)[*:2]].I.L.G.H.[Cit].D.Y.K}$$$$V2.0)	–	–	solubility in water ([2]; listed as 8 hydrochloride salt): dissolved readily in water
CCCCCCCCCCCC(=O)N[C@H](C(=O)N[C@@H](CC(C)C)C(=O)NCC(=O)N[C@@H](Cc1c[nH]cn1)C(=O)N[C@@H](CCCNC(N)=O)C(=O)N[C@@H](CC(=O)O)C(=O)N[C@@H](Cc1ccc(O)cc1)C(=O)N[C@@H](CCCCN)C(=O)O)[C@@H](C)CC [L-8, N-Dodecanoyl-Ile-Leu-Gly-His-Cit-Asp-Tyr-Lys-OH] (HELM PEPTIDE1{[CCCCCCCCCCCC(=O)[*:2]].I.L.G.H.[Cit].D.Y.K}$$$$V2.0)	inactive	poor solubility; also recorded: aqueous solubility issues	–
CC[C@H](C)[C@H](N)C(=O)N[C@@H](CC(C)C)C(=O)NCC(=O)N[C@@H](Cc1c[nH]cn1)C(=O)N[C@@H](CCCNC(N)=O)C(=O)N[C@@H](CC(=O)O)C(=O)N[C@@H](Cc1ccc(O)cc1)C(=O)N[C@@H](CCCCN)C(=O)O [L-PDC31, H-Ile-Leu-Gly-His-Cit-Asp-Tyr-Lys-OH] (HELM PEPTIDE1{I.L.G.H.[Cit].D.Y.K}$$$$V2.0)	–	–	time to complete degradation in mouse plasma ([3]; 5 µL 0.4 mM peptide in 95 µL serum): ≤ 5 min; stability in mouse plasma, in words ([3]; incubation up to 2 hours): rapidly degraded in plasma
H-ile-leu-Gly-his-arg-asp-tyr-lys-OH [PDC113]	–	–	activity as FP inhibitor, in words [4]: active FP inhibitor
N-Octadecanyl-Ile-Leu-Gly-His-Cit-Asp-Tyr-Lys-OH [L-4f]	trends suggesting protective effects; also recorded: not statistically significant	required a small amount of DMSO to completely dissolve; also recorded: aqueous solubility issues; also recorded: poorly soluble in water	–

— PMC6891598, “Application of N-Dodecyl L-Peptide to Enhance Serum Stability while Maintaining Inhibitory Effects on Myometrial Contractions Ex Vivo” (Molecules, 2019)
